Eight molecules from US8722649B2, “Alpha-chloro and alpha-bromo phosphonate analogs of lysophosphatidic acid and methods of making and using thereof” (University of Utah Research Foundation, priority 2007, dated 2014) can be followed below.

One assay addresses T1, recombinant ATX-HA (Homo sapiens, UniProt Q13822).
T1 construct: HA
The assay can be described thus: Autotaxin assay (FS-3 hydrolysis). The assay is classed as biochemical. Conditions: for inhibition at 10 µM / Inhibition (%) of autotaxin (ATX) phosphodiesterase activity: FS-3 substrate. Here is the method: Autotaxin Assay. This assay utilizes FS-3 (Echelon Biosciences, Inc. Salt Lake City, Utah) as substrate and recombinant ATX-HA. For analysis, 50 μl of ATX-HA (0.25 μg) in assay buffer (Tris 50 mM, NaCl 140 mM, KCl 5mM, CaCl2 1 mM, MgCl2 1 mM, pH 8.0) was mixed with 25 μl of FS-3 (1 μM final concentration in assay buffer) and 25 μl of test compound dissolved in assay buffer containing 1:1.5 bovine serum albumin in 96-well plate. FS-3 fluorescence was monitored using FLEXstation fluorescence plate reader at a time zero and after 2 hours of incubation at 37° C. at excitation and emission wavelengths of 485 nm and 538 nm, respectively. Data was normalized to the corresponding vehicle control and the mean±standard deviation of triplicate wells were expressed as percent ATX inhibition. IC50, and Ki values were calculated as described.

Another assay addresses T2, human LPA5 (Homo sapiens, UniProt Q9H1C0).
T2 construct: expressed in transfected cells; host or cells: rat hepatoma RH7777 cells, transient (Effectene)
The assay can be described thus: Ca2+ mobilization assay, LPA5 transiently transfected RH7777 cells. The assay is classed as cell-based. Conditions: for LPA5 ligand type: agonist/antagonist in words; for Emax at 10 µM: RH7777. The protocol:
Receptor activation using Ca^2+ mobilization assay for diastereomers of 1 (also represented as 19b). The rat hepatoma (RH7777) cell lines individually expressing either LPA1, LPA2, LPA3 or LPA5 receptors and Chinese hamster ovary (CHO) cell line were analyzed to examine agonism and antagonism. […] CHO cells stably expressing either vector or LPA4 were kindly gifted from Dr. Shimizu (University of Tokyo, Tokyo, Japan).
Transient transfection of LPA5. RH7777 cells in a 10-cm dish at a density of 2×10^6/dish were transfected with 2 μg of plasmid DNA with Effectene (Qiagen, Valencia, Calif.) according to the manufacturer's instructions for 24 h, then replated onto PLL-coated 96-well plates at a density of 5×10^4 cells/well and cultured overnight. The following day, the culture medium was then replaced with modified Krebs buffer, and the cells were serum starved for 4 h. Subsequently, cells were loaded with Fura-2 AM for 30 min in modified Krebs buffer containing 2% (v/v) pluronic acid.
After incubating the cells with Fura-2 AM, the cells were rinsed with Krebs buffer and changes in the intracellular Ca^2+ concentration were monitored by determining the ratio of emitted light intensities at 520 nm in response to excitation at 340 and 380 nm using FLEXstation II (Molecular Devices, Sunnyvale, Calif.). Each well was monitored for 80-120 sec. For testing agonist activity of the compounds, the test compounds were added automatically after 15 sec of baseline measurement. To determine antagonist properties, varying concentrations of the compounds were mixed with a constant concentration of LPA and responses were monitored. Each test was performed in quadruplicate. EC50, IC50, and Ki values were calculated by fitting a sigmoid function to data points with the nonlinear curve-fitting feature of KaleidaGraph (Synergy Software, Essex Junction, Vt.).

The next assay deals with T3, PPARγ (Homo sapiens, UniProt P37231).
T3 construct: expressed in transfected cells; host or cells: CV-1 cells, transient (LipofectAMINE 2000)
T3 sequence (P37231 1-505): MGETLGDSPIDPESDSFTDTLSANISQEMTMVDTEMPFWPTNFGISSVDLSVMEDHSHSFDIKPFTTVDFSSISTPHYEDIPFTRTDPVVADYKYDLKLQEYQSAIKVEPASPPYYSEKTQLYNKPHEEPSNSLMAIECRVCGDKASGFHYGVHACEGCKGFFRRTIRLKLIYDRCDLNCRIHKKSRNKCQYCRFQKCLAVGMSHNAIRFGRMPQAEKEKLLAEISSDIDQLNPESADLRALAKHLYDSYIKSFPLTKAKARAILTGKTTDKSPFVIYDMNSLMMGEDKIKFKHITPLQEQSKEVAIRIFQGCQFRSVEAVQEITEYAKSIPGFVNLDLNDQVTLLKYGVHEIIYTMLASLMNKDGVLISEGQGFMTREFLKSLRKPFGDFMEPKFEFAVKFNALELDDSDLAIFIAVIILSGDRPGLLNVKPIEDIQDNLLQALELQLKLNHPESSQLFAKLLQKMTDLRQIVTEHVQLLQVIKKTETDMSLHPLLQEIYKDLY
Kind of assay: PPARγ activation assay (PPRE-Acox-Rluc reporter in CV-1 cells). It is filed as cell-based. Conditions: 10 μM test analogue, 20 h. The protocol:
PPARγ activation assay. PPARγ activation was performed using CV-1 cells transfected with an acyl-coenzyme A oxidase-luciferase (PPRE-Acox-Rluc) reporter gene construct as previously reported. Briefly, CV-1 cells were plated in 96-well plates at a density of 1×10^4 cells per well in Dulbecco's modified Eagle's medium supplemented with 10% fetal bovine serum. The next day, the cells were transiently transfected with 125 ng of pGL3-PPRE-Acox-Rluc, 62.5 ng of pcDNA3.1 PPARγ, and 12.5 ng of pSV-β-galactosidase (Promega) using LipofectAMINE 2000 (Invitrogen). Twenty-four hours after transfection, cells were treated with OptiMEM (Invitrogen) containing 10 μM Rosiglitazone or 10 μM of the test analogue dissolved in DMSO for 20 h. Luciferase and β-galactosidase activities were measured with Steady-Glo® Luciferase Assay System (Promega) and the Galacto-Light Plus™ system (Applied Biosystems), respectively. Samples were run in quadruplicate and the mean ±standard errors were calculated. Data are representative of at least two independent transfections.

Where [1] appears, read: 10 μM, read-out: ATX Inhibition (Table 2).
The mark [2] stands for this setting: transiently transfected RH7777 cells.
The mark [3] stands for this setting: 10.0 μM, preliminary single-dose screen.

“Also recorded” adds a separate entry of the source. Like-named read-outs stand apart in the source and are kept apart here.

T2 sequence (Q9H1C0 whole entry): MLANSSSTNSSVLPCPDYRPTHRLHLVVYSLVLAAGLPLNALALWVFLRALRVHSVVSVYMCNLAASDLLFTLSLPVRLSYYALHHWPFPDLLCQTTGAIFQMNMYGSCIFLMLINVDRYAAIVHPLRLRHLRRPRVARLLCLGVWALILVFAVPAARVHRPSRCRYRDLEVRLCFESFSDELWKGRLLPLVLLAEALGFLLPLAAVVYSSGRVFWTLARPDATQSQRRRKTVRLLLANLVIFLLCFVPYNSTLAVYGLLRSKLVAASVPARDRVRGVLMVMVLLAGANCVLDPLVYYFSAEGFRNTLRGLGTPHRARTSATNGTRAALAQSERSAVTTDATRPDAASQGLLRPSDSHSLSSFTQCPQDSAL

With `CCCCCCCCCCCCCCCC(=O)OC[C@@H](O)C[C@H](Br)P(=O)(O)O` [Compound 1b], on recombinant ATX-HA (setting [1]), the inhibition at 10 µM was 99.4 ± 2.7%. Besides, the half-maximal inhibitory concentration (IC50) at recombinant ATX-HA (0.3 to 10 μM, FS-3 hydrolysis, read-out: ATX apparent IC50) is roughly 300 nM; on human LPA5 (setting [2]), 977 nM. The LPA5 ligand type result on human LPA5 is “showed inhibition of LPA5; also recorded: Antagonist”. The Ki on human LPA5 (setting [2]) turned out to be 376 nM.
Regarding `CCCCCCCCCCCCCCCC(=O)OC[C@@H](O)CC(Br)P(=O)(O)O` (mixture of isomers) [Compound 1, [1-Bromo-3(S)-hydroxyl-4-(palmitoyloxy)butyl]-phosphonate], the “Inhibition (%) of autotaxin (ATX) phosphodiesterase activity” value (“Inhibition (%) of autotaxin” below) at recombinant ATX-HA (10.0 μM, preliminary single-dose screen, listed as 19b) is 93.7 ± 2.0%. The inhibition at 10 µM on recombinant ATX-HA (10.0 μM, preliminary single-dose screen, read-out: Inhibition (%) of autotaxin (ATX) phosphodiesterase activity) is greater than 90%; on recombinant ATX-HA (setting [1]) it was 102 ± 2.7%. For the same molecule, the maximum response (Emax) at 10 µM at human LPA5 turned out to be 54%. Further, at human LPA5 (transiently transfected RH7777 cells, NS = non-saturated), the EC50 came out at 1280 nM.
For `CCCCCCCCCCCCCCCC(=O)OCC(O)CC(O)P(=O)([O-])O.[Na+]` (mixture of isomers) [Compound 22b, reference compound], the “PPARγ (PPRE luciferase reporter gene assay)” value (shortened to “PPARγ”) at PPARγ is listed as “NE (NE = no effect was shown at the highest concentration (30 μM) tested.)”. In addition, on recombinant ATX-HA (setting [3]), the “Inhibition (%) of autotaxin” value is 54.1%.
Taken in the same sequence, the figures for `CCCCCCCCCCCCCCCC(=O)OC[C@@H](O)CCP(=O)([O-])O.[Na+]` [Compound 20b, reference compound] were “NE (NE = no effect was shown at the highest concentration (30 μM) tested.)” and 60.6 ± 4.6%.
Consider `CCCCCCCCC=CCCCCCCCC(=O)OCC(O)CC(O)P(=O)([O-])O.[Na+]` (mixture of isomers) [Compound 22a, reference compound], for which the “PPARγ” value at PPARγ was “NE (NE = no effect was shown at the highest concentration (30 μM) tested.)”. Besides, the “Inhibition (%) of autotaxin” value on recombinant ATX-HA (setting [3]) worked out at 74.7%.
`CCCCCCCC/C=C\CCCCCCCC(=O)OCC(O)CCP(=O)(O)O` (centres unmarked) [Compound 20a, reference compound]: the “PPARγ” value on PPARγ is reported as “NE (NE = no effect was shown at the highest concentration (30 μM) tested.)”. Moreover, the “Inhibition (%) of autotaxin” value on recombinant ATX-HA (setting [3]) is listed as 99.8%.
For `CCCCCCCCCCCCCCCC(=O)OCC(O)COP(=O)(O)O` (centres unmarked) [LPA (16:0), reference compound], in that order: “NE (NE = no effect was shown at the highest concentration (30 μM) tested.)” and 38.1 ± 3.4%.
As for `CCCCCCCCCCCCCCCC(=O)OC[C@@H](O)C[C@@H](Br)P(=O)(O)O` [Compound 1a], at recombinant ATX-HA (setting [1]), the inhibition at 10 µM is 98.1 ± 2.3%. Moreover, at human LPA5, the maximal effect (Emax) at 10 µM is 64% and the LPA5 ligand type entry is on record as “Partial Agonist”.
